Data from ChEMBL document CHEMBL1201862, “PubChem BioAssay data set” (2004).
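1) Cells in 96-well plates. 2) Compound, 48 h, 5 concentrations. 3) Linear interpolation between surrounding doses. 4) Unreached endpoint = highest concentration. GI50: concentration for 50% inhibition of growth.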 Calls of active or inactive are those of the source. Cut-off read from the data, not from the text of the source: active = GI50 up to about 1.1 µM and inactive = higher.

Key:
Assay in all cases: NCI anticancer screen, dose series, 48 h
786-0 = tested on: 786-0
HL-60 = tested on: HL-60
KM-20L2 = tested on: KM-20L2
KM12 = tested on: KM12
LXFL 529 = tested on: LXFL 529
M19-MEL = tested on: M19-MEL
MOLT-4 = tested on: MOLT-4
NCI-H522 = tested on: NCI-H522
OVCAR-4 = tested on: OVCAR-4
OVCAR-5 = tested on: OVCAR-5
RPMI-8226 = tested on: RPMI-8226
SK-MEL-28 = tested on: SK-MEL-28
SW-620 = tested on: SW-620
XF498 = tested on: XF498
RXF 393 = tested on: RXF 393
BT-549 = tested on: BT-549
DU-145 = tested on: DU-145
MCF7 = tested on: MCF7
MDA-MB-231 = tested on: MDA-MB-231
NCI/ADR-RES = tested on: NCI/ADR-RES

Measured: GI50

O=C1C(=O)N(c2ccc(Cl)cc2Cl)C(=O)C(=O)C1c1nc2ccccc2o1
inactive: 786-0 > 100 µM | HL-60 > 100 µM | KM-20L2 > 100 µM | KM12 > 100 µM | LXFL 529 > 100 µM | M19-MEL > 100 µM | MOLT-4 > 100 µM | NCI-H522 > 100 µM | OVCAR-4 > 100 µM | OVCAR-5 > 100 µM | RPMI-8226 > 100 µM | SK-MEL-28 > 100 µM | SW-620 > 100 µM | XF498 > 100 µM

CSc1ccc(-c2cn3ccsc3n2)c(O)c1
inactive: 786-0 20.7 µM | HL-60 17 µM | KM-20L2 > 65.2 µM | KM12 > 56.5 µM | LXFL 529 > 54.5 µM | MOLT-4 30.5 µM | NCI-H522 37.2 µM | OVCAR-4 > 49.4 µM | OVCAR-5 > 92.9 µM | RPMI-8226 13.8 µM | SK-MEL-28 > 100 µM | SW-620 36.1 µM | XF498 30.2 µM

CCC(O)CCCCCCCCCCCCCCC(=O)O (stereo unspecified)
inactive: 786-0 84.9 µM | HL-60 24.8 µM | KM12 61.8 µM | LXFL 529 > 100 µM | M19-MEL > 100 µM | MOLT-4 44.3 µM | NCI-H522 > 100 µM | OVCAR-4 > 100 µM | OVCAR-5 > 100 µM | RPMI-8226 66.8 µM | RXF 393 > 100 µM | SK-MEL-28 > 100 µM | SW-620 > 100 µM | XF498 > 100 µM

Cc1ccc(NC(=O)CC/C(CC(=O)C(C)(C)C)=N/Nc2nnc(C)n2N)cc1C
inactive: 786-0 > 100 µM | HL-60 > 100 µM | KM-20L2 > 100 µM | KM12 84.9 µM | LXFL 529 > 100 µM | M19-MEL > 100 µM | MOLT-4 66.5 µM | NCI-H522 > 100 µM | OVCAR-5 > 100 µM | RPMI-8226 > 100 µM | RXF 393 > 100 µM | SK-MEL-28 > 100 µM | SW-620 > 100 µM | XF498 > 100 µM

CN(C)CCN1N=Nc2cccc3cccc1c23
inactive: 786-0 > 100 µM | HL-60 > 46.8 µM | KM-20L2 > 61.4 µM | KM12 > 100 µM | LXFL 529 > 87.3 µM | MOLT-4 35.2 µM | NCI-H522 54.2 µM | OVCAR-4 72.9 µM | OVCAR-5 > 100 µM | RPMI-8226 > 43.9 µM | SK-MEL-28 > 100 µM | SW-620 25.1 µM | XF498 > 89.5 µM

COC(=O)c1cc(-c2ccc(OC)c(OC)c2)oc1-c1ccc(OC)c(OC)c1
inactive: 786-0 37.3 µM | HL-60 64.7 µM | KM-20L2 53.3 µM | KM12 41.6 µM | LXFL 529 27.7 µM | M19-MEL 41.3 µM | MOLT-4 32.7 µM | OVCAR-4 62.5 µM | OVCAR-5 36.1 µM | RPMI-8226 33.3 µM | RXF 393 19.1 µM | SK-MEL-28 57.9 µM | SW-620 45.3 µM | XF498 37.3 µM

[N-]=[N+]=Nc1ccccc1Oc1ccccc1
inactive: 786-0 > 100 µM | HL-60 > 100 µM | KM-20L2 > 100 µM | KM12 > 100 µM | LXFL 529 > 100 µM | M19-MEL > 100 µM | MOLT-4 > 100 µM | NCI-H522 > 100 µM | OVCAR-4 > 100 µM | OVCAR-5 > 100 µM | RPMI-8226 > 100 µM | SK-MEL-28 > 100 µM | SW-620 > 100 µM | XF498 > 100 µM

CN(Cc1ccccc1)/C(=N\C#N)N(Cc1ccccc1)Cc1ccccc1
inactive: 786-0 31.5 µM | BT-549 19.3 µM | DU-145 39.9 µM | HL-60 30.1 µM | KM-20L2 19.6 µM | KM12 18.7 µM | LXFL 529 21.9 µM | M19-MEL 22.8 µM | MCF7 22.3 µM | MDA-MB-231 20.6 µM | MOLT-4 10.5 µM | NCI-H522 18.1 µM | NCI/ADR-RES 19.8 µM | OVCAR-4 24.4 µM | OVCAR-5 21.1 µM | RPMI-8226 21 µM | RXF 393 28.9 µM | SK-MEL-28 27.3 µM | SW-620 40.4 µM

COc1ccc([C@@H]2C[C@@H]3C(=O)OC(=O)[C@@H]3c3c2c2ccccc2n3C)cc1
inactive: 786-0 > 100 µM | HL-60 > 100 µM | KM12 > 100 µM | LXFL 529 > 100 µM | M19-MEL > 100 µM | MOLT-4 > 100 µM | NCI-H522 > 100 µM | OVCAR-4 > 100 µM | RPMI-8226 > 100 µM | SK-MEL-28 > 100 µM | SW-620 > 100 µM | XF498 > 100 µM

CCCCCCCCCCCCCC/C(C(=O)OC)=C(/O)C(=O)OCC
inactive: 786-0 19.7 µM | HL-60 > 100 µM | KM12 19.9 µM | LXFL 529 39.3 µM | M19-MEL 54.8 µM | MOLT-4 37.6 µM | NCI-H522 43.3 µM | OVCAR-4 58.9 µM | OVCAR-5 27 µM | RPMI-8226 > 100 µM | RXF 393 99.5 µM | SK-MEL-28 24 µM | SW-620 > 100 µM | XF498 20.4 µM

Cc1cc([N+](=O)[O-])c(C)c2c1[nH]c1ccc(Cl)cc12
inactive: 786-0 > 100 µM | HL-60 58.7 µM | KM12 > 100 µM | M19-MEL > 100 µM | MOLT-4 23.6 µM | NCI-H522 18.8 µM | OVCAR-4 > 100 µM | OVCAR-5 > 100 µM | RPMI-8226 50 µM | SK-MEL-28 > 100 µM | SW-620 71.9 µM | XF498 > 100 µM

Cc1cccc(C)c1NC(=O)C(=O)C(C(=O)c1ccccc1-c1ccccc1)C1OC(=O)c2ccccc21 (stereo unspecified)
inactive: 786-0 18.2 µM | HL-60 21 µM | KM-20L2 28.8 µM | KM12 20.9 µM | LXFL 529 13.5 µM | M19-MEL 15.6 µM | MOLT-4 18.1 µM | NCI-H522 10.9 µM | OVCAR-5 23.2 µM | RPMI-8226 15.8 µM | RXF 393 12.8 µM | SK-MEL-28 22.9 µM | SW-620 26.4 µM | XF498 15.9 µM

O=C1C2=C(CC3C(C2)C3(Br)Br)C(=O)C2=C1CC1C(C2)C1(Br)Br (stereo unspecified)
inactive: 786-0 > 100 µM | HL-60 > 100 µM | KM-20L2 > 100 µM | KM12 > 100 µM | LXFL 529 > 100 µM | M19-MEL 52.8 µM | MOLT-4 > 100 µM | NCI-H522 34.6 µM | OVCAR-4 > 100 µM | OVCAR-5 > 100 µM | RXF 393 > 100 µM | SK-MEL-28 > 100 µM | XF498 > 100 µM

CC(C)(C)NC(=O)C12C3C4C1C1C2C3C41I (stereo unspecified)
inactive: 786-0 > 100 µM | HL-60 > 100 µM | KM-20L2 > 100 µM | KM12 > 100 µM | LXFL 529 > 100 µM | M19-MEL > 100 µM | MOLT-4 > 100 µM | NCI-H522 > 100 µM | OVCAR-5 > 100 µM | RPMI-8226 > 100 µM | SK-MEL-28 > 100 µM | SW-620 > 100 µM | XF498 > 100 µM

CC1=C(c2cc(C(=O)Nc3ccc(Cl)cc3)nc(S)n2)Sc2ccccc2N1
inactive: 786-0 > 100 µM | HL-60 > 100 µM | KM-20L2 > 100 µM | KM12 > 100 µM | LXFL 529 > 100 µM | M19-MEL > 100 µM | NCI-H522 > 100 µM | OVCAR-4 > 100 µM | OVCAR-5 > 100 µM | RXF 393 > 100 µM | SK-MEL-28 > 100 µM | SW-620 > 100 µM | XF498 > 100 µM

CC(N)C(C)c1ccccc1 (stereo unspecified)
inactive: 786-0 > 100 µM | HL-60 > 100 µM | KM-20L2 > 100 µM | KM12 > 100 µM | LXFL 529 > 100 µM | MOLT-4 > 100 µM | NCI-H522 > 100 µM | OVCAR-4 > 100 µM | OVCAR-5 > 100 µM | RPMI-8226 > 100 µM | RXF 393 > 100 µM | SK-MEL-28 > 100 µM | SW-620 > 100 µM | XF498 > 100 µM

O=C(NCCCN1CCN(CCCNC(=O)Nc2cc(Cl)ccc2Cl)CC1)Nc1cc(Cl)ccc1Cl
inactive: 786-0 32.5 µM | HL-60 34.4 µM | KM-20L2 28.4 µM | KM12 > 100 µM | LXFL 529 51.2 µM | MOLT-4 > 100 µM | NCI-H522 38.6 µM | OVCAR-4 34 µM | OVCAR-5 > 100 µM | RPMI-8226 80 µM | RXF 393 > 100 µM | SK-MEL-28 60.3 µM | SW-620 > 100 µM | XF498 > 100 µM

CC1=NN(c2ccccc2)C(=O)C1/N=N/c1ccc(Br)c(C)c1 (stereo unspecified)
inactive: 786-0 > 100 µM | HL-60 > 100 µM | KM-20L2 > 100 µM | KM12 > 100 µM | LXFL 529 > 100 µM | M19-MEL > 100 µM | MOLT-4 71.3 µM | OVCAR-4 > 100 µM | OVCAR-5 > 100 µM | RPMI-8226 > 100 µM | RXF 393 > 100 µM | SK-MEL-28 > 100 µM | SW-620 > 100 µM | XF498 > 100 µM

CC[N+](CC)(CC)Cc1cn(S(=O)(=O)c2ccccc2)c2ccccc12
inactive: 786-0 > 100 µM | HL-60 > 100 µM | KM-20L2 > 100 µM | KM12 > 100 µM | M19-MEL > 100 µM | MOLT-4 > 100 µM | NCI-H522 > 100 µM | OVCAR-4 > 100 µM | OVCAR-5 > 100 µM | RPMI-8226 > 100 µM | SK-MEL-28 > 100 µM | SW-620 > 100 µM | XF498 > 100 µM
